{"source": "patent US10865203B2", "about": "“Ligands selective to alpha 6 subunit-containing GABAA receptors and their methods of use” (UWM Research Foundation, Inc., priority 2015, dated 2020)", "key": {"[1]": {"system": "HEPG2 cell line", "experiment": "Cytotoxicity study, CellTiter-Glo cell viability", "assay_type": "cell-based, Human", "conditions": "HEPG2, 48 hours incubation", "procedure": "Reagents and Instrumentation: Human liver hepatocellular carcinoma (HEPG2) cell line was purchased (ATCC) and cultured in 75 cm2 flasks (CellStar). Cells were grown in DMEM/High Glucose (Hyclone, #SH3024301) media to which non-essential amino acids (Hyclone, #SH30238.01), 10 mM HEPES (Hyclone, #SH302237.01), 5×106 units of penicillin and streptomycin (Hyclone, #SV30010), and 10% of heat inactivated fetal bovine serum (Gibco, #10082147) were added. Cells were harvested using 0.05% Trypsin (Hyclone, #SH3023601), which disrupts the cell monolayer and proteolytically cleaves the bonds between the cells and flask. The cell viability assay was evaluated using CellTiter-Glo™ Luminescent Cell Viability Assay Kit (Promega, Madison, Wis.) which contains luciferase and all its substrate except ATP. The controls for the cytotoxicity assay used were (E)-10-(bromotriphenylphosphoranyl)decyl 4-(4-(tert-butyl)phenyl)-4-oxobut-2-enoate (400 μM in DMSO, positive control) and DMSO (negative control). Cell culture was performed in a Baker Company Class II Biological Safety Cabinet. All luminescence readings were performed on a Tecan Infinite M1000 plate reader. Small volume transfers were performed on the Tecan Freedom EVO liquid handling system with a 100 nL pin tool transfer (V&P Scientific). Serial dilutions were done in 96-well polypropylene plates (Corning, #3365) and assays were conducted in 384-well white optical bottom plates.\nLuminescence-Based VDR-Mediated Transcription Assay Protocol: After 48 hours of incubation at 37 °C with 5% CO2, the cells were harvested with 4 mL of 0.05% Trypsin, added to 10 mL of the assay buffer, DMEM/High Modified buffer without phenol red, and spun down for 3 minutes at 1000 rpm. The media was removed and cells were resuspended in the DMEM assay media. To each well, 40 μL of cells were added to yield a final concentration of 15,000 cells per well. The plates were then spun down for 2 minutes at 1000 rpm. After 2 hours, plated cells were treated with 100 nL×4 of small molecules and controls which were added using the pin tool. After 48 hours of incubation at 37 °C with 5% CO2, 20 μL of Cell Titer-Glo™ Luminescence Assay Kit (cytotoxicity assay) were added and luminescence was read. Controls were measured within each plate to determine the z′ factor (Equation 1) and to enable data normalization. Three independent experiments were performed in quadruplicate and data was analyzed using nonlinear regression with variable slope (GraphPrism, Equation 2). The luminescence intensity of control (untreated) cells was taken as 100% viability, and the relative cell viability compared to control was calculated. Data are presented as the means±SEM of a series of three experiments."}, "[2]": {"experiment": "Pharmacokinetic study in mice, plasma and brain", "assay_type": "in vivo, mouse", "conditions": "nanoemulsion", "protocol": "Five pharmacokinetic studies have been performed; four in male Wistar rats and one in male Swiss mice. […] At predetermined time intervals, i.e., 5, 20, 60, 180, and 720 min after dosing, the blood and brain samples of the rat were collected. […] At predetermined time intervals, i.e., 5, 20, 40, 120, and 360 min, the blood and brain samples of the mouse were collected."}, "[3]": {"experiment": "Microsomal stability assay, mouse liver microsomes", "assay_type": "in vitro ADME", "conditions": "for stability in Mouse liver microsomes: Table 2", "method_in_brief": "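Test compound at 10 μM was preincubated 5 min at 37 °C in phosphate buffer pH 7.4 with NADPH regenerating system, then started with human or mouse liver microsomes at 0.5 mg/mL protein. Samples were taken at 0–60 min and quenched in cold acetonitrile with internal standard. Slope k came from ln peak-area ratio versus time, three repeats in duplicate.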"}, "[4]": {"experiment": "Solubility of compounds in DI water", "assay_type": "physicochemical", "conditions": "thermodynamic from solid; 2 mg in 2 mL DI water, sonicated at 60° C. for 2 hours, cooled to room temperature, filtered", "procedure": "The solubility of the compounds was examined by sonicating 2 mg of each respective compound in 2 mL of DI water at 60° C. for 2 hours. Solutions were cooled to room temperature and then filtered using a syringe filter. The resultant solutions were injected into a mass spectrometer using a SIM method, calibrated to the respective retention times and mass units of each compound. Calibration curves using standard solutions (5 data points) of each compound dissolved in methanol were used to calculate the unknown aqueous concentrations of each compound."}, "[5]": {"conditions": "10 μM test compound, 0.5 mg/mL protein, 37° C."}}, "data": [{"smiles": "[2H]C([2H])([2H])Oc1ccc(-n2nc3c4ccc(OC)cc4[nH]cc-3c2=O)cc1", "note": "[DK-I-56-1, 7-Methoxy-2-(4-methoxy-d3-phenyl)-2,5-dihydro-3H-pyrazolo[4,3-c]quinolin-3-one]", "values": [{"measurement": "toxicity at 400 μM", "setting": "[1]", "value": "non-toxic"}, {"measurement": "total concentrations in mouse brain", "setting": "[2]; 10 mg/kg i.p.", "value": "submicromolar"}, {"measurement": "maximum concentration in mouse brain", "setting": "[2]; 30 mg/kg i.p.", "value": 7.5, "unit": "µmol/L"}, {"measurement": "% left after 1 hr. (MLM)", "setting": "[3]; [5]", "value": "92.8 ± 0.09", "unit": "%"}, {"measurement": "Half-life (min) (MLM)", "setting": "[3]; [5]", "value": "628.8 ± 73", "unit": "min"}, {"measurement": "solubility at 2 h", "setting": "[4]", "value": 11.4, "unit": "µg/mL"}]}, {"smiles": "COc1ccc(-n2nc3c4ccc(Br)cc4[nH]cc-3c2=O)cc1", "note": "[LAU 463, 7-Bromo-2-(4-methoxyphenyl)-2,5-dihydro-3H-pyrazolo[4,3-c]quinolin-3-one]", "values": [{"measurement": "% left after 1 hr. (MLM)", "setting": "[3]; [5]", "value": "69 ± 0.16", "unit": "%"}, {"measurement": "Half-life (min) (MLM)", "setting": "[3]; [5]", "value": "113.17 ± 5.15", "unit": "min"}]}, {"smiles": "COc1cccc(-n2nc3c4cc(Cl)ccc4[nH]cc-3c2=O)c1", "note": "[LAU 159, 8-Chloro-2-(3-methoxyphenyl)-2,5-dihydro-3H-pyrazolo[4,3-c]quinolin-3-one]", "values": [{"measurement": "% left after 1 hr. (MLM)", "setting": "[3]; [5]", "value": "59.83 ± 0.23", "unit": "%"}, {"measurement": "Half-life (min) (MLM)", "setting": "[3]; [5]", "value": "89.07 ± 5.22", "unit": "min"}, {"measurement": "stability in Mouse liver microsomes", "setting": "[3]", "value": "~60", "unit": "%"}]}, {"smiles": "[2H]C([2H])([2H])Oc1ccc2c3nn(-c4ccc(OC)nc4)c(=O)c-3c[nH]c2c1", "note": "[DK-I-86-1, 7-Methoxy-d3-2-(6-methoxypyridin-3-yl)-2,5-dihydro-3H-pyrazolo[4,3-c]quinolin-3-one]", "values": [{"measurement": "toxicity at 400 μM", "setting": "[1]", "value": "non-toxic"}, {"measurement": "% left after 1 hr. (MLM)", "setting": "[3]; [5]", "value": "91.3 ± 0.12", "unit": "%"}, {"measurement": "Half-life (min) (MLM)", "setting": "[3]; [5]", "value": "550.6 ± 78", "unit": "min"}, {"measurement": "higher stability compared to non-Deuterated (DK-II-13-1)", "setting": "[3]; mouse liver microsomes", "value": "~20", "unit": "%"}, {"measurement": "solubility at 2 h", "setting": "[4]", "value": 211, "unit": "µg/mL"}]}, {"smiles": "COc1ccc(-n2nc3c4ccc(OC)cc4[nH]cc-3c2=O)cc1", "note": "[Compound 6, 7-Methoxy-2-(4-methoxyphenyl)-2,5-dihydro-3H-pyrazolo[4,3-c]quinolin-3-one]", "values": [{"measurement": "% left after 1 hr. (MLM)", "setting": "[3]; [5]", "value": "80.35 ± 0.14", "unit": "%"}, {"measurement": "stability in Mouse liver microsomes", "setting": "[3]", "value": 80, "unit": "%"}, {"measurement": "half-life at 10 μM", "setting": "[3]; mouse, liver microsomes, pH 7.4, 10 μM test compound, 0.5 mg/mL protein, 37° C., read-out: Half-life (min) (MLM)", "value": "194 ± 11.4", "unit": "min"}]}]}
